The record followed here is patent US9718805B2, “Triazole compounds and their use as gamma secretase modulators” (Acturum Life Science AB, priority 2013, dated 2017).

Experiment [1] has as its system Aβ42 formation in HEK cell line stably expressing APP with the Swedish mutation (APPswe). The experiment is described as follows: HEK assay (Aβ42 secreted to cell medium, Meso Scale electrochemiluminescence). The experiment is classed as cell-based. The settings on record: Homo sapiens, HEK293; HEK cells expressing APPswe; 4-6 hours incubation with test compound; read-out: pIC50 Aβ42 HEK assay (converted). The procedure: (§1) The level of activity of the compounds on Aβ formation was tested using the following methods:
Compounds were diluted in 100% DMSO and stored at 20° C. prior to use. Human Embryonic Kidney (HEK) cell line stably expressing APP with the Swedish mutation (APPswe) was cultured using Dulbecco's Modified Eagles medium (DMEM) supplied with […] glucose, Na-pyruvate and GlutaMAX, 10% Foetal bovine serum, 100 U/mL penicillin-streptomycin (PEST), 1× non-essential amino acids (NEAA), […] Hepes, 100 μg/mL Zeocine. Cells at about 80% confluence were washed with PBS, detached from culture flasks using 1×Trypsin/EDTA diluted in PBS, re-suspended in cell media and plated in 384-well poly-d-lysine coated cell culture plates at about 10000-15000 cells/well, in 25 μL cell media. Optionally, cryo-preserved cells (frozen and stored at −140° C. in 90% cell media and 10% DMSO) were thawed, washed and plated as above. Next the cells were incubated for 15-24 h at 37° C. and 5% CO2, after which cell medium was changed. Fresh medium containing test compound diluted ×200 from prepared compound plate was added to the cells before further incubation for 4-6 hours at 37° C. and 5% CO2. After incubation with test compound the amount of Aβ peptides, including Aβ42, Aβ40, Aβ39, Aβ38 and Aβ37, secreted to cell medium was analyzed using the electrochemiluminescence assay technology from Meso Scale Discovery Technology, in combination with specific antibodies raised against the different Aβ peptides. Potential cytotoxic effects of the compounds were assayed by measuring the ATP content (ViaLight) from cell lysate.

The test system of experiment [2] is Aβ42 formation in primary cortical neuronal cells (PCN). The experiment is described as follows: PCN assay (Aβ42 secreted by primary cortical neuronal cells, ELISA). The experiment is classed as cell-based. The settings on record: mouse primary cortical neuronal cells; 16-20 hours incubation with test compound; read-out: pIC50 Aβ42 PCN assay (converted). The procedure:
as §1
Compounds were diluted in 100% DMSO and stored at 20° C. prior to use. Primary cortical neuronal cells (PCN) were isolated from 16-day mouse embryos and cultured in Ham's F12 media containing 10% Foetal bovine serum, 10 mM Hepes, 2 mM L-glutamine and 100 U/ml Penicillin-Streptomycin. 150000-250000 cells/well, in 200 μl cell media were seeded onto 96-well poly-D-Lysine coated plates. After incubation at 37° C., 5% CO2 for five days, the media was exchanged for fresh medium containing test compound diluted ×100, before further incubation for 16-20 hours at 37° C. and 5% CO2. After incubation with test compound the amount of Aβ42 peptides secreted to cell medium was analyzed using the solid phase sandwich Enzyme-Linked-Immuno-Sorbent Assay (ELISA)-kit from Invitrogen for detection of mouse βAmyloid 1-42. Potential cytotoxic effects of the compounds were assayed by measuring the ATP content (Via Light) from cell lysate.
(ELISA stands for enzyme-linked immunosorbent assay.)

As to `COc1cc(Nc2nc(NCC3CC3)n(C)n2)ccc1-n1cnc(C)c1` [Example 1, N^5-(Cyclopropylmethyl)-N^3-[3-methoxy-4-(4-methyl-1H-imidazol-1-yl)phenyl]-1-methyl-1H-1,2,4-triazole-3,5-diamine], the values for the IC50 in experiment [1] and in experiment [2] were 79.4 nM and 158 nM, respectively. Take `COc1cc(Nc2nc(N(CC3CC3)CC3CC3)n(C)n2)ccc1-n1cnc(C)c1` [Example 2, 5-N,5-N-Bis(cyclopropylmethyl)-3-N-[3-methoxy-4-(4-methyl-1H-imidazol-1-yl)phenyl]-1-methyl-1H-1,2,4-triazole-3,5-diamine]: the IC50 in experiment [1] was 63.1 nM. Consider `COc1cc(Nc2nc(NCC3CC3)n(CC(C)C)n2)ccc1-n1cnc(C)c1` [Example 3, 5-N-(Cyclopropylmethyl)-3-N-[3-methoxy-4-(4-methyl-1H-imidazol-1-yl)phenyl]-1-(2-methylpropyl)-1H-1,2,4-triazole-3,5-diamine], for which the IC50 in experiment [1] is 63.1 nM.

In the case of `COc1cc(Nc2nc(N(C)CC(C)(C)O)n(Cc3ccccc3)n2)ccc1-n1cnc(C)c1` [Example 4, 1-[(1-Benzyl-3-{[3-methoxy-4-(4-methyl-1H-imidazol-1-yl)phenyl]amino}-1H-1,2,4-triazol-5-yl)(methyl)amino]-2-methylpropan-2-ol], the IC50 in experiment [1] was 100 nM. On to `COc1cc(Nc2nc(N(C)CC3CC3)n(CC(C)(C)O)n2)ccc1-n1cnc(C)c1` [Example 5, 1-{5-[(Cyclopropylmethyl)(methyl)amino]-3-{[3-methoxy-4-(4-methyl-1H-imidazol-1-yl)-phenyl]amino}-1H-1,2,4-triazol-1-yl}-2-methylpropan-2-ol], for which the IC50 in experiment [1] was 79.4 nM. Consider `COc1cc(Nc2nc(NCc3ccccc3)n(CC(C)(C)O)n2)ccc1-n1cnc(C)c1` [Example 6, 1-[5-(Benzylamino)-3-{[3-methoxy-4-(4-methyl-1H-imidazol-1-yl)phenyl]amino}1H-1,2,4-triazol-1-yl]-2-methylpropan-2-ol], for which the IC50 in experiment [1] is 20 nM; in experiment [2] it was 15.8 nM. For `COc1cc(Nc2nc(N(C)Cc3ccccc3)n(CC(C)(C)O)n2)ccc1-n1cnc(C)c1` [Example 7, 1-{5-[Benzyl(methyl)amino]-3-{[3-methoxy-4-(4-methyl-1H-imidazol-1-yl)phenyl]amino}-1H-1,2,4-triazol-1-yl}-2-methylpropan-2-ol], the values for the IC50 in experiment [1] and in experiment [2] were 15.8 nM and 20 nM, respectively.
